GI50 and TGI data for 11 compounds are collected here from PubChem BioAssay (NCI).

Test systems include CAKI-1 renal; HCC-2998 colon; HL-60(TB) leukemia; HOP-92 NSCLC; K-562 leukemia; SF-268 CNS; SK-OV-3 ovarian; TK-10 renal; KM12 colon; RXF 393 renal.
Common to all, as to experiment: NCI anticancer screen, dose series, 48 h

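All cell lines were grown in 96-well plates and treated with compound for 48 hours. Abbreviation: GI50, concentration required for 50% inhibition of growth. At the TGI there is no net growth.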

For `CCN(CC)c1ccc(C(O)C2=CC(=O)c3ccccc3C2=O)cc1` (stereo unspecified), the GI50 in the assay on CAKI-1 renal is 2.31 µM; with HCC-2998 colon, 1.92 µM; in the assay on HL-60(TB) leukemia, 7.1 µM; in the assay with HOP-92 NSCLC, 0.21 µM; in the assay with K-562 leukemia it was 0.416 µM; with SF-268 CNS, greater than 100 µM. Moreover, the results for the GI50 with SK-OV-3 ovarian and in the assay on TK-10 renal were 2.66 µM and 1.51 µM, respectively. In addition, the TGI was 7.4 µM in the assay on CAKI-1 renal; 3.43 µM in the assay on HCC-2998 colon; greater than 100 µM with HL-60(TB) leukemia; 0.942 µM with HOP-92 NSCLC; greater than 100 µM in the assay on SF-268 CNS; 6.82 µM in the assay with SK-OV-3 ovarian. The same compound came in with a TGI in the assay on TK-10 renal of 3.16 µM.
`C[C@@]12CCC[C@@](C)(C(=O)O)C1CC[C@]13C[C@@](O)(CO)[C@](O)(CCC12)C3` (stereo partly specified): the GI50 with CAKI-1 renal, with HCC-2998 colon, in the assay with HL-60(TB) leukemia, in the assay with K-562 leukemia, in the assay on KM12 colon and with RXF 393 renal was greater than 100 µM each time. For the same compound, the GI50 with SF-268 CNS, in the assay with SK-OV-3 ovarian and in the assay on TK-10 renal was greater than 100 µM each time. Besides, the TGI with CAKI-1 renal, in the assay on HCC-2998 colon, in the assay on HL-60(TB) leukemia, in the assay with K-562 leukemia, with KM12 colon and with RXF 393 renal was greater than 100 µM in each case. For the same compound, the TGI in the assay with SF-268 CNS, in the assay on SK-OV-3 ovarian and with TK-10 renal was greater than 100 µM in each case.
`C/C(=N\NS(=O)(=O)c1ccc(C)cc1)P(=O)(O)O`: the TGI in the assay on CAKI-1 renal, in the assay with HOP-92 NSCLC, in the assay on K-562 leukemia, in the assay with KM12 colon, in the assay on RXF 393 renal and in the assay with SF-268 CNS was greater than 100 µM in each case. Besides, the TGI in the assay with SK-OV-3 ovarian and with TK-10 renal was greater than 100 µM in each case.
As to `C=C1CCC2C3(C)COC(c4ccccc4)OC3CCC2(C)C1/C=C/C1=CCOC1=O` (stereo unspecified), the GI50 with HCC-2998 colon is 7.75 µM; in the assay with HL-60(TB) leukemia it was 1.27 µM; in the assay with K-562 leukemia, 2.31 µM; in the assay with KM12 colon it was 2.91 µM; in the assay on RXF 393 renal it was 2.93 µM; in the assay with SF-268 CNS, 5.22 µM. Besides, the GI50 with SK-OV-3 ovarian is 11.5 µM; in the assay with TK-10 renal, 12.3 µM. The TGI in the assay on HCC-2998 colon was 19.4 µM; in the assay on HL-60(TB) leukemia, 3.91 µM; in the assay on K-562 leukemia, greater than 100 µM; in the assay on KM12 colon, 11.4 µM; with RXF 393 renal, 8.65 µM; in the assay on SF-268 CNS it was 22.5 µM. Further, the TGI is greater than 100 µM in the assay on SK-OV-3 ovarian and 34 µM in the assay on TK-10 renal.
As to `Clc1ccc(-c2c3c(nn2-c2ccccn2)CCc2ccccc2-3)cc1Cl`, the GI50 was greater than 100 µM in the assay on CAKI-1 renal; greater than 100 µM in the assay with HCC-2998 colon; greater than 100 µM in the assay on K-562 leukemia; greater than 100 µM with KM12 colon; 94.6 µM in the assay with RXF 393 renal; greater than 100 µM with SF-268 CNS. Also, the GI50 in the assay on SK-OV-3 ovarian was greater than 100 µM; in the assay with TK-10 renal it was 65.6 µM. Besides, the TGI with CAKI-1 renal, in the assay with HCC-2998 colon, in the assay on K-562 leukemia, in the assay on KM12 colon, in the assay with RXF 393 renal and in the assay on SF-268 CNS was greater than 100 µM each time. The TGI in the assay on SK-OV-3 ovarian and with TK-10 renal was greater than 100 µM in each case.
`O=C(c1ccccc1)C1OC1c1ccc([N+](=O)[O-])cc1` (stereo unspecified): the GI50 is 2.31 µM with CAKI-1 renal; 11 µM in the assay on HCC-2998 colon; 3.83 µM in the assay with KM12 colon; 6.38 µM with RXF 393 renal; 8.73 µM with SF-268 CNS; 29.1 µM with SK-OV-3 ovarian. For the same compound, the GI50 in the assay with TK-10 renal is 6.1 µM. Moreover, the TGI in the assay with CAKI-1 renal was 6.56 µM; with HCC-2998 colon it was 26.1 µM; in the assay on KM12 colon it was 17.7 µM; in the assay on RXF 393 renal, 44.8 µM; with SF-268 CNS it was greater than 100 µM; in the assay with SK-OV-3 ovarian it was 90.3 µM. Besides, in the assay on TK-10 renal, the TGI stood at 50.8 µM.
In the case of `Nc1nnnn1CCO`, the TGI with CAKI-1 renal, in the assay with HOP-92 NSCLC, with K-562 leukemia, with KM12 colon, with RXF 393 renal and in the assay on SF-268 CNS was greater than 100 µM throughout. For the same compound, the TGI in the assay on SK-OV-3 ovarian and in the assay with TK-10 renal was greater than 100 µM throughout.
In the case of `O=C(Nc1ccc(Cl)c(Cl)c1)Nc1c(Oc2ccc(Cl)c(Cl)c2)ccc(Cl)c1S(=O)(=O)O`, the GI50 in the assay on HCC-2998 colon is 2.11 µM; in the assay with K-562 leukemia it was 0.516 µM; with KM12 colon, 0.927 µM; in the assay on RXF 393 renal, 1.92 µM; in the assay on SF-268 CNS it was 3.82 µM. In addition, the TGI in the assay on HCC-2998 colon is greater than 100 µM; in the assay with K-562 leukemia, greater than 100 µM; with KM12 colon it was greater than 100 µM; in the assay on RXF 393 renal, 5.64 µM; in the assay on SF-268 CNS, greater than 100 µM.
Take `Cc1ccc(S(=O)(=O)NC2(C=O)CCCC3CCCCC32)cc1` (stereo unspecified): the TGI with CAKI-1 renal, in the assay on HCC-2998 colon, with HL-60(TB) leukemia, with K-562 leukemia, in the assay with KM12 colon and with RXF 393 renal was greater than 100 µM in each case. The TGI in the assay on SF-268 CNS, with SK-OV-3 ovarian and in the assay with TK-10 renal was greater than 100 µM in each case.
`CC(=O)C1=C(O)C=C2Oc3c(C(=O)/C=C/c4c(Cl)cccc4Cl)c(O)c(C)c(O)c3[C@]2(C)C1=O`: the GI50 in the assay with CAKI-1 renal is 0.832 µM; in the assay on HCC-2998 colon, 2.57 µM; in the assay with HL-60(TB) leukemia it was 0.849 µM; with K-562 leukemia, 0.619 µM; with KM12 colon, 1.15 µM; in the assay on RXF 393 renal, 2.32 µM. Further, the GI50 was 0.856 µM with SF-268 CNS, 2.57 µM in the assay on SK-OV-3 ovarian and 0.728 µM with TK-10 renal. Besides, the TGI with CAKI-1 renal came to 8.92 µM; with HCC-2998 colon, 5.26 µM; in the assay on HL-60(TB) leukemia, 7.08 µM; in the assay on K-562 leukemia, 15 µM; in the assay with KM12 colon, 3.99 µM; in the assay on RXF 393 renal it was 5.03 µM. Moreover, the values for the TGI in the assay with SF-268 CNS, in the assay with SK-OV-3 ovarian and in the assay on TK-10 renal were 3.73 µM, 7.4 µM and 5.17 µM, respectively.
Consider `CO/N=C(\C)c1ccc(Nc2cc(-c3ccccc3)nc3ccc(OC)cc23)cc1`, for which the GI50 in the assay on CAKI-1 renal is 2.05 µM; with HCC-2998 colon it was 3.16 µM; with HOP-92 NSCLC it was 2.14 µM; in the assay on K-562 leukemia it was 5.42 µM; with SF-268 CNS, 10.2 µM; in the assay with SK-OV-3 ovarian, 15.2 µM. Further, the GI50 in the assay with TK-10 renal was 2.52 µM. Also, the TGI was 5.16 µM with CAKI-1 renal; 15.9 µM with HCC-2998 colon; 6.77 µM in the assay on HOP-92 NSCLC; greater than 100 µM in the assay with K-562 leukemia; 28.8 µM with SF-268 CNS; 60.4 µM with SK-OV-3 ovarian. Further, the TGI in the assay on TK-10 renal turned out to be 6.85 µM.
